Data published in US10679730B2, “Prognostic and predictive breast cancer signature” (The University of Chicago, priority 2013, dated 2020).

Legend:
Format in all cases: cell-based, human
[1] = tested on: TET1 mRNA in 1833 cells; assay: qRT-PCR for TET1 mRNA after demethylation treatment of 1833 cells; details: 1833 cells treated with 5-azacytidine, GAPDH normalization (FIG. 18D)
Experimental: (§1) Total RNA was isolated from cells by using miRNeasy Mini Kit (Qiagen) following the manufacturer's instructions. Quantitative RT-PCR (qRT-PCR) was performed as described (4). The qPCR primers for human or murine HMGA2, TET1, HOXA genes and GAPDH were Taqman and were purchased from Applied Biosystems. Cells were subjected to 5-azacytidine (1 or 3.6 μM), decitabine (5-aza-dC; 220 or 440 nM), or mock treatment by addition into cell culture at indicated concentration. Cells were treated daily. RNA and protein were isolated respectively.

[2] = tested on: HOXA7 mRNA in 1833 cells; assay: qRT-PCR for HOXA7 mRNA after demethylation treatment of 1833 cells; details: 1833 cells treated with 5-azacytidine, GAPDH normalization (FIG. 20F)
Experimental: as §1

[3] = tested on: HOXA9 in 1833 cells; assay: qRT-PCR / immunoblotting for HOXA9 after demethylation treatment of 1833 cells; details: 1833 cells treated with demethylation reagent; qRT-PCR / immunoblotting (FIG. 20G, 27A, 27C)
Experimental: Total RNA was isolated from cells by using miRNeasy Mini Kit (Qiagen) following the manufacturer's instructions. Quantitative RT-PCR (qRT-PCR) was performed as described (4). The qPCR primers for human or murine HMGA2, TET1, HOXA genes and GAPDH were Taqman and were purchased from Applied Biosystems.
Cells were lysed in complete lysis buffer (pH 7.5) by using Nuclear Extract Kit (Active Motif) following the manufacturer's protocols. Proteins were measured, separated, and probed as described (4). Antibodies specific for each protein were HMGA2 (61042; Active Motif), TET1 (sc-163446; Santa Cruz Biotechnologies), HOXA7 (09-086; Millipore), HOXA9 (09-178; Millipore), GAPDH (ab9484; Abcam), and Flag-M1 (F3040; Sigma).
(§2) Cells were subjected to 5-azacytidine (1 or 3.6 μM), decitabine (5-aza-dC; 220 or 440 nM), or mock treatment by addition into cell culture at indicated concentration. Cells were treated daily. RNA and protein were isolated respectively.

[4] = tested on: 1833 cells; assay: In vitro cell invasion assay (Matrigel); details: 1833 cells treated with demethylation reagent (FIG. 21D, 27B)
Experimental: as §2
Cell proliferation assays were performed by using the CellTiter-Blues assay (Promega) as described (4). Invasion assays were performed as described (4) with modifications. Briefly, the inserts were coated with Matrigel basement membrane matrix (BD Biosciences). To assess the cell invasion ability, […] cells were seeded on top of the polymerized Matrigel in serum-free medium, and complete medium (10% FBS) was placed in the lower compartment. After 24 h, cells on the lower part of the insert were stained with BD Calcein AM Fluorescent Dye. The inserts with the invaded cells were incubated in dissociation buffer (Travigen) with gentle shaking. Fluorescence measurements were used to record data with 485 nm for excitation and 530 nm for emission.

With `Nc1ncn([C@@H]2O[C@H](CO)[C@@H](O)[C@H]2O)c(=O)n1` [5-azacytidine] the TET1 expression [1] was “increase in TET1 expression”, the HOXA7 expression [2] was “dramatic increase” and the HOXA9 expression [3] was “dramatic increase”. The cell invasion [4] was “decreased cell invasion”.
